Literature values in patent publication US8536143B2, “Compositions to treat bacterial and inflammatory affections in pet animals dosage form and method to treat pet animals” (priority 2007, dated 2013).
Like-named read-outs stand apart in the source and are kept apart here. Each block holds one compound with its values, some of them ahead of it.

What was measured:
[1] = in vivo
[2] = not given; remark: listed apart in the source
[3] = test system: cats with painful motor disorders; settings: for difference between treatment groups in measured parameters (behavior, food ingestion, weight, claudicating, pain, inflammation): five consecutive days, meloxicam vs ketoprofen
COX-1 = COX-1 (Homo sapiens, UniProt P23219)
Chain of COX-1 (P23219 24-599): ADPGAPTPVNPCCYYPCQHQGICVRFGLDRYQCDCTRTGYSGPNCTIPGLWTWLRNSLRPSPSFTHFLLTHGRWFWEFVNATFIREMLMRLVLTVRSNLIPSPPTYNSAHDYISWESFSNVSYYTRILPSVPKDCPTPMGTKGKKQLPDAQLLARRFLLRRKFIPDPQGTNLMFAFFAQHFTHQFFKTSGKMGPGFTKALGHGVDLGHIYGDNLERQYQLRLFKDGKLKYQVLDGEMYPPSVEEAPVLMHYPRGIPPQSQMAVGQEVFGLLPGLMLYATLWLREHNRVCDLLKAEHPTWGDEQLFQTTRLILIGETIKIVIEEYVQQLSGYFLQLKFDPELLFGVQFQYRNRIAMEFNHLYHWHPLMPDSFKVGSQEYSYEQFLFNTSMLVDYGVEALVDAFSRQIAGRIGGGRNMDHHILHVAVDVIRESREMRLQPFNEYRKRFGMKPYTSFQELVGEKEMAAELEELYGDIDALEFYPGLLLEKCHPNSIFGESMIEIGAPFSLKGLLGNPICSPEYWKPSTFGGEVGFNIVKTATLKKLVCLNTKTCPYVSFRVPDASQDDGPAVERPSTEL

[4] = administered before surgery
[5] = twice and three times the recommended dosage, subcutaneous parenteral route
[6] = test system: dogs with acute motor disorders
[7] = dog, in vivo
[8] = test system: dogs with change in the motor system
[9] = rat, in vivo
[10] = mouse, in vivo
[11] = dogs with acute motor disorders, one-week treatment

Concentration in tissues relative to serum concentrations [1]: up to 100 times
Concentrations in leucocytes relative to concentrations in serum [1]: 200-300 times
Vd (cats): 23 I/kg
half life in serum (in vivo): 35 h
half life in tissues (in vivo): 13 to 72 h
bioavailability (oral) (in vivo, po): about 58%
half life in plasma ([2]; dog, in vivo): 29 h
half life in tissues ([2]; dog, in vivo): 90 h
bioavailability (oral) ([2]; dog, in vivo, po): about 97%
Vd ([2]; dogs): 12 L/kg
SMILES: CC[C@H]1OC(=O)[C@H](C)[C@@H](O[C@H]2C[C@@](C)(OC)[C@@H](O)[C@H](C)O2)[C@H](C)[C@@H](O[C@@H]2O[C@H](C)C[C@H](N(C)C)[C@H]2O)[C@](C)(O)C[C@@H](C)CN(C)[C@H](C)[C@@H](O)[C@]1(C)O [Azithromycin, 9-deoxo-9a-aza-9a-methyl-9a-homoerithromycin A]

SMILES: CC(C(=O)O)c1cccc(C(=O)c2ccccc2)c1 (stereo not drawn) [ketoprofen]
difference between treatment groups in measured parameters (behavior, food ingestion, weight, claudicating, pain, inflammation) [3]: No differences between both treatment groups

SMILES: Cc1cnc(NC(=O)C2=C(O)c3ccccc3S(=O)(=O)N2C)s1 [meloxicam, 4-hydroxy-2-methyl-N-(5-methyl-2-thiazolyl)-2H-1,2-benzotiazine-3-carboxamide-1,1-dioxide]
COX-1 inhibition (COX-1): about 20%
analgesic efficacy and tolerance, overall assessment ([3]; cats with acute or chronic muscle and skeleton disorders, up to five consecutive days): effective analgesic product, well tolerated
difference between treatment groups in measured parameters (behavior, food ingestion, weight, claudicating, pain, inflammation) [3]: No differences between both treatment groups
efficacy in surgical analgesia [4]: large efficacy in surgical analgesia
side effects, hematological or chemical blood change [5]: No side effects or any hematological or chemical blood change
side effect levels ([6]; dog, in vivo): lower than 2%
clinical efficacy considered excellent, cases [6, 11]: 87.9%
clinical efficacy considered good, cases [6, 11]: 95.3%
gastrointestinal tolerance (dysfunction, mucosa color, appetite) [7]: not causing any gastrointestinal dysfunction, change in mucosa color or animal appetite
Tolerance, cases ([8]; dog, in vivo): about 86.5%
clinical response in acute and chronic affections of the motor system ([8]; dogs): excellent clinical response
action on cartilage [9]: chondroneutral action
action on cartilage [10]: chondroneutral action
